Measured values published in publication PMC5789847, “Bismuth antimicrobial drugs serve as broad-spectrum metallo-β-lactamase inhibitors” (Nature Communications, 2018).

Legend:
E. coli ATCC 25922 = test: Microdilution MIC assay; assay type: cell-based
Source text: (§1) Other procedures were kept strictly the same.

E. coli Rosetta(DE3) = test: Microdilution MIC assay; assay type: cell-based
Source text: as §1

E. coli BL21(DE3) = test: Microdilution MIC assay; assay type: cell-based
Source text: as §1

NDM-Rosetta OX = test: Microdilution MIC assay; assay type: cell-based, E. coli; details: NDM-Rosetta OX
Description: For the test of NDM-Rosetta OX, the growth condition briefly goes as follow. Overnight culture of NDM-Rosetta was 1000-fold diluted into fresh LB medium and regrew to OD ~0.6. The overexpression of NDM-1 was induced by addition of 1 mM isopropyl β-D-1-thiogalactopyranoside (IPTG) for 4 h at 37 °C. The following susceptibility test was performed as described in the Microdilution MIC and MBC assay section in the methodology by using the resulting bacterial pellets with the supplementation of 200 µM IPTG.
as §1

NDM-HK [1] = test: Murine peritonitis infection, mucin-assisted model; assay type: in vivo, BALB/c mice; details: 2% mucin
Source text: All experiments were approved by, and performed in accordance with the guidelines approved by Committee on the Use of Live Animals in Teaching and Research (CULATR), the University of Hong Kong. A total of 6–8-week-old, female BALB/c mice (18–22 g) were purchased from Charles River Laboratories, Inc. and were used in all mouse studies. The animals were randomized to cages for each experiment.
In mucin-assisted model, for infection with NDM-1-positive bacteria, an overnight culture of NDM-HK was performed 1:250 dilution in 100 mL LB broth and re-grew to about OD600 0.3 in a 500-mL flask after 2.5 h shaking at 37 °C, 250 rpm. Bacterial pellets were collected and washed by PBS buffer three times for further use. Mice were infected intraperitoneally (i.p.) with a dose of 1 × 10^5 CFU of bacteria in PBS supplemented with 2% mucin. […] Twice-daily treatment via i.p. injection was continued throughout the whole experimental course. For the infection with NDM-1-negative bacteria, all the operations of infection were similar to those used for NDM-HK, except that NDM-HK PCV was used as infection-causing bacteria. […] Twice-daily treatment via i.p. injection was continued throughout the whole experimental course. Body weights and mice survival were monitored till endpoint of the experiment.

[2] = set-up: method as in earlier work; details: treatment of peptic ulcer disease; cited from earlier work
NDM-HK [3] = test: In vitro cell infection assay (MDCK cells); assay type: cell-based, E. coli
Description: MDCK cell was cultured in minimum essential Media (MEM) supplemented with fetal bovine serum (FBS, 10%) and grown at 37 °C in 5% CO2-humidified atmosphere for 3 days. About 1.0 × 10^5 MDCK cells were seeded per well in 24-well plates and incubated as described above for 48 h to ensure confluency. Logarithmic cultures of NDM-HK were washed with PBS for three times and re-suspended in MEM/10% FBS resulting in the initial bacterial density of about 2.0 × 10^7 CFU mL^−1. Then, 500 μL of bacterial suspension were added to each well and substituted for the previous MDCK culture medium. The plates were centrifuged at 800 × g for 10 min and then incubated for another 6 h, executing the bacterial infection at multiplicity of infection (MOI) of 200. We then used two infection models for examination, viz, the cell-associated bacterial infection and cell-invaded bacterial infection. The cell-associated bacteria are herein defined as bacteria that attach to, penetrate, or transcytose in MDCK cells, while the cell-invaded bacteria are defined as bacteria that penetrate or transcytose MDCK cells. For the cell-invaded infection, the infected cells were incubated in culture medium supplemented with ciprofloxacin (100 µg mL^−1) for 1 h to remove extracellular bacteria. Then, the treated cells were washed vigorously with PBS for six times and replenished with culture medium. For the cell-associated infection, the infected cells were only washed vigorously with PBS for six times to remove unbound bacteria. The infected MDCK cells were then exposed to either MER or CBS, or their combination for overnight under identical cell culture condition. Cells in the absence of drugs served as a control. The bacterial loads were examined by lysing MDCK cells with 1% Triton X-100 in PBS and serially diluting the resulting lysates to enumerate bacterial colonies by agar plating. The assay was performed in triplicate, repeated three times, and results were expressed as average ± SD.

IMP-BL21 (IMP-4^+) = test: microbe, parasite or virus in culture; assay type: cell-based, E. coli; details: IMP-BL21
VIM-BL21 (VIM-2^+) = test: microbe, parasite or virus in culture; assay type: cell-based, E. coli; details: VIM-BL21
NDM-HK (NDM-1^+) = test: microbe, parasite or virus in culture; assay type: cell-based, E. coli
[4] = MER + compound, 256 µg mL^-1 set as MIC of Bi(III)

colloidal bismuth subcitrate [CBS]
MIC of MER in combination with CBS at 16 µg mL-1 (E. coli ATCC 25922): 0.03 µg/mL | MIC of MER in combination with CBS at 32 µg mL-1 (E. coli ATCC 25922): 0.03 µg/mL | MIC of MER in combination with CBS at 256 µg mL-1 (E. coli ATCC 25922): 0.03 µg/mL | MIC of MER in combination with CBS at 16 µg mL-1 (E. coli Rosetta(DE3)): 0.03 µg/mL | MIC of MER in combination with CBS at 32 µg mL-1 (E. coli Rosetta(DE3)): 0.03 µg/mL | MIC of MER in combination with CBS at 256 µg mL-1 (E. coli Rosetta(DE3)): 0.03 µg/mL | MIC of MER in combination with CBS at 16 µg mL-1 (E. coli BL21(DE3)): 0.03 µg/mL | MIC of MER in combination with CBS at 32 µg mL-1 (E. coli BL21(DE3)): 0.03 µg/mL | MIC of MER in combination with CBS at 256 µg mL-1 (E. coli BL21(DE3)): 0.03 µg/mL | MIC of MER in combination with CBS at 16 µg mL-1 (NDM-Rosetta OX): 128 µg/mL | MIC of MER in combination with CBS at 32 µg mL-1 (NDM-Rosetta OX): 128 µg/mL | MIC of MER in combination with CBS at 256 µg mL-1 (NDM-Rosetta OX): 32 µg/mL | protection from death, CBS monotherapy (NDM-HK [1]; i.p. twice daily from 4 h post infection, CBS 20 mg kg^−1 (Fig. 4f), within 48 h): failed to protect any of the mice from death | mice survival rate, combination therapy of MER and CBS (NDM-HK [1]; i.p. twice daily, MER + CBS 20 mg kg^−1 (Fig. 4f)): 50% | intoxication at recommended dosage [2]: No intoxication has been documented | decrease in the bacterial load, bacteria-invaded model (NDM-HK [3]; MER and CBS combination): more than 100 fold | viable bacterial loads, cell-associated infection (NDM-HK [3]; MOI 200, MER and CBS (32 μg mL^−1) in combination, overnight): ~10^4 CFU | MBC of Bi(III) compound alone (IMP-BL21 (IMP-4^+)): > 256 µg/mL | MBC of MER in combination with compound at 32 µg mL^-1 (IMP-BL21 (IMP-4^+)): 8 µg/mL | MIC of Bi(III) compound alone (IMP-BL21 (IMP-4^+)): > 256 µg/mL | MIC of MER in combination with compound at 32 µg mL^-1 (IMP-BL21 (IMP-4^+)): 4 µg/mL | FICI (IMP-BL21 (IMP-4^+); [4]): 0.187 | MBC of Bi(III) compound alone (VIM-BL21 (VIM-2^+)): > 256 µg/mL | MBC of MER in combination with compound at 32 µg mL^-1 (VIM-BL21 (VIM-2^+)): 1 µg/mL | MIC of Bi(III) compound alone (VIM-BL21 (VIM-2^+)): > 256 µg/mL | MIC of MER in combination with compound at 32 µg mL^-1 (VIM-BL21 (VIM-2^+)): 0.5 µg/mL | FICI (VIM-BL21 (VIM-2^+); [4]): 0.047 | growth inhibition by CBS itself (NDM-HK (NDM-1^+); NDM-1-positive NDM-HK, even at 256 µg mL^-1): no or minor growth inhibition | MBC of Bi(III) compound/inhibitor alone (NDM-HK (NDM-1^+); NDM-HK): > 256 µg/mL | MBC of MER in combination with compound at 32 µg mL^-1 (NDM-HK (NDM-1^+); NDM-HK): 4 µg/mL | MIC of Bi(III) compound/inhibitor alone (NDM-HK (NDM-1^+); NDM-HK): > 256 µg/mL | MIC of MER in combination with CBS at 16 µg mL-1 (NDM-HK (NDM-1^+); NDM-HK): 4 µg/mL | MIC of MER in combination with CBS at 256 µg mL-1 (NDM-HK (NDM-1^+); NDM-HK): 2 µg/mL | MIC of MER in combination with compound at 32 µg mL^-1 (NDM-HK (NDM-1^+); NDM-HK): 2 µg/mL | FICI (NDM-HK (NDM-1^+); NDM-HK, MER + compound, 256 µg mL^-1 set as MIC of Bi(III), 128 for Bi(NAC)3): 0.250
